Laboratory results as given in paper PMC7558399, “In Vitro Selective Growth-Inhibitory Activities of Phytochemicals, Synthetic Phytochemical Analogs, and Antibiotics against Diarrheagenic/Probiotic Bacteria and Cancer/Normal Intestinal Cells” (Pharmaceuticals, 2020).
In brackets after ≈: the same amount, converted by molar mass. Like-named read-outs stand apart in the source and are kept apart here.

Tests used:
Format in all cases: cell-based
[1] = test system: Lactobacillus reuteri (CCM 3625); assay: Broth microdilution MIC, L. reuteri; conditions: Limosilactobacillus reuteri, CCM3625; Lactobacillus reuteri; growth inhibited by ≥80%; read-out: MIC
[2] = test system: Bifidobacterium breve (ATCC 15700); assay: Broth microdilution MIC, B. breve; conditions: ATCC15700, growth inhibited by ≥80%, read-out: MIC
[3] = test system: FHs 74 Int (ATCC CCL 241) intestinal normal cells; assay: MTT cytotoxicity assay, FHs 74 Int; conditions: 72 h, FHs 74 Int (intestinal normal cells), MTT; for IC50 / IC80: FHs74Int; for IC50: read-out: IC50 ± SD; for IC80: read-out: IC80 ± SD (80% inhibitory concentration of proliferation)
[4] = test system: intestinal cancer cells (HT29 and Caco-2); assay: MTT cytotoxicity assay, mean for intestinal cancer cells; conditions: for x¯ -CC ± SD: mean IC50 for intestinal cancer cells / IC50: mean of HT29 and Caco-2, >512 replaced with 1024; for IC80: read-out: x¯ -CC ± SD: mean IC80 for intestinal cancer cells; for IC50: read-out: x¯ -CC ± SD: mean IC50 for intestinal cancer cells
[5] = test system: Enterococcus faecalis (ATCC 29212); assay: Broth microdilution MIC, E. faecalis; conditions: ATCC29212, growth inhibited by ≥80%, read-out: MIC
[6] = test system: Lactobacillus casei (DSMZ 20011); assay: Broth microdilution MIC, L. casei; conditions: Lacticaseibacillus casei, DSMZ20011; Lactobacillus casei; growth inhibited by ≥80%; read-out: MIC
[7] = test system: Listeria monocytogenes (ATCC 7644); assay: Broth microdilution MIC, L. monocytogenes; conditions: ATCC7644, growth inhibited by ≥80%, read-out: MIC
[8] = test system: Clostridium perfringens (DSMZ 11778); assay: microbe, parasite or virus in culture; conditions: DSMZ11778
[9] = test system: Shigella flexneri (ATCC 12022); assay: microbe, parasite or virus in culture; conditions: ATCC12022
[10] = test system: Bifidobacterium adolescentis (DSMZ 20087); assay: Broth microdilution MIC, B. adolescentis; conditions: DSMZ20087, growth inhibited by ≥80%, read-out: MIC
[11] = test system: S. enterica ssp. enterica serovar Typhimurium (ATCC 14028); assay: Broth microdilution MIC, Salmonella Typhimurium; conditions: Salmonella Typhimurium, growth inhibited by ≥80%, read-out: MIC
[12] = test system: Lactobacillus rhamnosus (CCM 7091); assay: Broth microdilution MIC, L. rhamnosus; conditions: Lacticaseibacillus rhamnosus, CCM7091; Lactobacillus rhamnosus; growth inhibited by ≥80%; read-out: MIC
[13] = test system: Vibrio parahaemolyticus (ATCC 17802); assay: Broth microdilution MIC, V. parahaemolyticus; conditions: ATCC17802, growth inhibited by ≥80%, read-out: MIC
[14] = test system: Yersinia enterocolitica (ATCC 9610); assay: Broth microdilution MIC, Y. enterocolitica; conditions: ATCC9610, growth inhibited by ≥80%, read-out: MIC
[15] = test system: probiotic bacteria (9 strains); assay: Broth microdilution MIC, probiotic bacteria as a group (mean or range over strains)
[16] = test system: Bifidobacterium animalis spp. lactis (DSMZ 10140); assay: Broth microdilution MIC, B. animalis spp. lactis; conditions: DSMZ10140; Bifidobacterium animalis spp. lactis; growth inhibited by ≥80%; read-out: MIC
[17] = test system: Bifidobacterium longum ssp. longum (DSMZ 20219); assay: Broth microdilution MIC, B. longum ssp. longum; conditions: DSMZ20219; Bifidobacterium longum ssp. longum; growth inhibited by ≥80%; read-out: MIC
[18] = test system: HT29 (ATCC HTB 38) intestinal cancer cells; assay: MTT cytotoxicity assay, HT29; conditions: Homo sapiens, HT-29, HT29, MTT, 72 h; for IC50: read-out: IC50 ± SD; for IC80: read-out: IC80 ± SD (80% inhibitory concentration of proliferation)
[19] = test system: Salmonella enterica ssp. enterica serovar Enteritidis (ATCC 13076); assay: Broth microdilution MIC, Salmonella Enteritidis; conditions: Salmonella Enteritidis, growth inhibited by ≥80%, read-out: MIC
[20] = test system: Bacillus cereus (ATCC 14579); assay: Broth microdilution MIC, B. cereus; conditions: ATCC14579, growth inhibited by ≥80%, median/mode, read-out: MIC
[21] = test system: Caco-2 (ATCC HTB 37) intestinal cancer cells; assay: MTT cytotoxicity assay, Caco-2; conditions: Homo sapiens, Caco-2, MTT, 72 h; for IC50: read-out: IC50 ± SD; for IC80: read-out: IC80 ± SD (80% inhibitory concentration of proliferation)
[22] = test system: Escherichia coli (ATCC 25922); assay: Broth microdilution MIC, E. coli; conditions: ATCC25922, growth inhibited by ≥80%, read-out: MIC
[23] = test system: E. coli 0175:H7 (NCTC 12900); assay: microbe, parasite or virus in culture; conditions: Escherichia coli, NCTC12900
[24] = test system: Bifidobacterium bifidum (ATCC 29521); assay: Broth microdilution MIC, B. bifidum; conditions: ATCC29521, growth inhibited by ≥80%, read-out: MIC
[25] = test system: Clostridium difficile (DSMZ 12056); assay: microbe, parasite or virus in culture; conditions: Clostridioides difficile, DSMZ12056, Clostridium difficile, read-out: MIC
[26] = test system: Bacteroides fragilis (ATCC 25285); assay: Broth microdilution MIC, B. fragilis; conditions: ATCC25285, growth inhibited by ≥80%, read-out: MIC
[27] = test system: diarrheagenic bacteria (12 strains); assay: microbe, parasite or virus in culture
[28] = mean of 9 strains, >512 replaced with 1024, read-out: x¯ -PB ± SD: mean MIC for probiotic bacteria
[29] = mean of 12 strains, >512 replaced with 1024, read-out: x¯ -DB ± SD: mean MIC for diarrheagenic bacteria

Row | Compound | MIC [1] | MIC [2] | IC50 [3] | IC80 [3] | IC80 [4] | MIC [5] | MIC [6] | MIC [7] | MIC [8] | MIC [9] | MIC [10] | MIC [11] | MIC [12] | MIC [13] | MIC [14] | MIC [15, 28] | MIC [16] | MIC [17] | IC50 [18] | IC80 [18] | also measured
1 | O=C(O)c1ccccc1O [SA, salicylic acid] | 512 µg/mL (≈ 3710 µM) | > 512 µg/mL | 73.2 ± 4.6 µg/mL (≈ 530 µM) | 207 ± 69 µg/mL (≈ 1500 µM) | > 512 µg/mL | > 512 µg/mL | 512 µg/mL (≈ 3710 µM) | > 512 µg/mL | > 512 µg/mL | > 512 µg/mL | > 512 µg/mL | > 512 µg/mL | 512 µg/mL (≈ 3710 µM) | > 512 µg/mL | > 512 µg/mL | 597 ± 336 µg/mL (≈ 4320 µM) | 128 µg/mL (≈ 927 µM) | 512 µg/mL (≈ 3710 µM) | > 512 µg/mL | > 512 µg/mL | x¯ -CC ± SD: mean IC50 for intestinal cancer cells [4]: - (Not active (MIC/IC50/80 > 512 μg/mL, the value 1024 μg/mL was used for average calculation)); x¯ -CC ± SD: mean IC50 for intestinal cancer cells ([4]; listed as salicylic acid): ≥ 253.6 ± 208 µg/mL; MIC [19]: > 512 µg/mL; MIC [20]: > 512 µg/mL; IC50 [21]: > 512 µg/mL; IC80 [21]: > 512 µg/mL; MIC [22]: > 512 µg/mL; MIC [23]: > 512 µg/mL; MIC [24]: > 512 µg/mL; MIC ([25]; […]): 256 µg/mL (≈ 1850 µM); MIC [26]: 128 µg/mL (≈ 927 µM); MIC [27, 29]: 960 ± 212 µg/mL (≈ 6950 µM)
2 | O=[N+]([O-])c1ccc(O)c2ncccc12 [NXL, 5-nitroquinolin-8-ol] | 16 µg/mL (≈ 84.1 µM) | 32 µg/mL (≈ 168 µM) | 0.4 ± 0.05 µg/mL (≈ 2.1 µM) | 0.8 ± 0.05 µg/mL (≈ 4.21 µM) | 4.4 ± 0.7 µg/mL (≈ 23.1 µM) | 32 µg/mL (≈ 168 µM) | 32 µg/mL (≈ 168 µM) | 16 µg/mL (≈ 84.1 µM) | 4 µg/mL (≈ 21 µM) | 2 µg/mL (≈ 10.5 µM) | 16 µg/mL (≈ 84.1 µM) | 16 µg/mL (≈ 84.1 µM) | 16 µg/mL (≈ 84.1 µM) | 8 µg/mL (≈ 42.1 µM) | 8 µg/mL (≈ 42.1 µM) | 20 ± 9 µg/mL (≈ 105 µM) | 32 µg/mL (≈ 168 µM) | 16 µg/mL (≈ 84.1 µM) | 2.6 ± 0.3 µg/mL (≈ 13.7 µM) | 3.7 ± 0.4 µg/mL (≈ 19.5 µM) | IC50 [4]: 1.8 ± 0.8 µg/mL (≈ 9.47 µM); MIC [19]: 16 µg/mL (≈ 84.1 µM); MIC [20]: 4 µg/mL (≈ 21 µM); IC50 [21]: 1.1 ± 0.03 µg/mL (≈ 5.78 µM); IC80 [21]: 5 ± 1.5 µg/mL (≈ 26.3 µM); MIC [22]: 4 µg/mL (≈ 21 µM); MIC [23]: 32 µg/mL (≈ 168 µM); MIC [24]: 16 µg/mL (≈ 84.1 µM); MIC ([25]; […]): 2 µg/mL (≈ 10.5 µM); MIC [26]: 4 µg/mL (≈ 21 µM); MIC ([27]; B. cereus, clostridial species, E. coli, and S. flexneri, read-out: MICs): 2 to 4 µg/mL (≈ 10.5 to 21 µM); MIC [27, 29]: 12 ± 10 µg/mL (≈ 63.1 µM)
3 | Oc1c(Cl)cc(Cl)c2cccnc12 [CLX, 5,7-dichloroquinolin-8-ol] | 128 µg/mL (≈ 598 µM) | 64 µg/mL (≈ 299 µM) | 0.5 ± 0.02 µg/mL (≈ 2.34 µM) | 2 ± 0.1 µg/mL (≈ 9.34 µM) | 5.4 ± 0.5 µg/mL (≈ 25.2 µM) | 16 µg/mL (≈ 74.7 µM) | 128 µg/mL (≈ 598 µM) | 32 µg/mL (≈ 149 µM) | 16 µg/mL (≈ 74.7 µM) | 16 µg/mL (≈ 74.7 µM) | 128 µg/mL (≈ 598 µM) | 16 µg/mL (≈ 74.7 µM) | 128 µg/mL (≈ 598 µM) | 16 µg/mL (≈ 74.7 µM) | 16 µg/mL (≈ 74.7 µM) | 245 ± 306 µg/mL (≈ 1150 µM) | 512 µg/mL (≈ 2390 µM) | 64 µg/mL (≈ 299 µM) | 3.7 ± 0.3 µg/mL (≈ 17.3 µM) | 5 ± 0.7 µg/mL (≈ 23.4 µM) | IC50 [4]: 2.5 ± 1.2 µg/mL (≈ 11.7 µM); MIC [19]: 64 µg/mL (≈ 299 µM); MIC [20]: 8 µg/mL (≈ 37.4 µM); IC50 [21]: 1.3 ± 0.04 µg/mL (≈ 6.07 µM); IC80 [21]: 5.9 ± 0.7 µg/mL (≈ 27.6 µM); MIC [22]: 16 µg/mL (≈ 74.7 µM); MIC [23]: 64 µg/mL (≈ 299 µM); MIC [24]: > 512 µg/mL; MIC ([25]; growth inhibited by ≥80%): 8 µg/mL (≈ 37.4 µM); MIC [26]: 32 µg/mL (≈ 149 µM); MIC [27, 29]: 24 ± 19 µg/mL (≈ 112 µM)
4 | O=C(N[C@H](CO)[C@H](O)c1ccc([N+](=O)[O-])cc1)C(Cl)Cl [CA, chloramphenicol] | 8 µg/mL (≈ 24.8 µM) | 4 µg/mL (≈ 12.4 µM) | 30.7 ± 5.6 µg/mL (≈ 95 µM) | > 512 µg/mL | > 512 µg/mL | 128 µg/mL (≈ 396 µM) | 16 µg/mL (≈ 49.5 µM) | 8 µg/mL (≈ 24.8 µM) | 4 µg/mL (≈ 12.4 µM) | 4 µg/mL (≈ 12.4 µM) | 4 µg/mL (≈ 12.4 µM) | 8 µg/mL (≈ 24.8 µM) | 8 µg/mL (≈ 24.8 µM) | 2 µg/mL (≈ 6.19 µM) | 16 µg/mL (≈ 49.5 µM) | 6.2 ± 4 µg/mL (≈ 19.2 µM) | 4 µg/mL (≈ 12.4 µM) | 4 µg/mL (≈ 12.4 µM) | 271.1 ± 1 µg/mL (≈ 839 µM) | > 512 µg/mL | IC80 ± SD (80% inhibitory concentration of proliferation) [3]: - (Not active (MIC/IC50/80 > 512 μg/mL, the value 1024 μg/mL was used for average calculation)); IC50 [4]: 355 ± 84 µg/mL (≈ 1100 µM); MIC ([15]; bifidobacteria, range over strains, read-out: MICs): 2 to 4 µg/mL (≈ 6.19 to 12.4 µM); MIC [19]: 4 µg/mL (≈ 12.4 µM); MIC [20]: 8 µg/mL (≈ 24.8 µM); IC50 [21]: 439.3 ± 4 µg/mL (≈ 1360 µM); IC80 [21]: > 512 µg/mL; MIC [22]: 4 µg/mL (≈ 12.4 µM); MIC [23]: 8 µg/mL (≈ 24.8 µM); MIC [24]: 4 µg/mL (≈ 12.4 µM); MIC ([25]; […]): 4 µg/mL (≈ 12.4 µM); MIC [26]: 4 µg/mL (≈ 12.4 µM); MIC ([27]; at least half of the diarrheagenic bacteria, read-out: MICs): 1 to 4 µg/mL (≈ 3.09 to 12.4 µM); MIC [27, 29]: 16.5 ± 34 µg/mL (≈ 51.1 µM)
